From patent US10336691B2, “Pesticidally active oxime and hydrazone derivatives” (Syngenta Participations AG, priority 2015, dated 2019) come the findings set out here.

Read-outs that look alike come from different tables or passages of the source.

One data set concerns Spodoptera littoralis. The data set is described as follows: Spodoptera littoralis (Egyptian cotton leaf worm) cotton leaf disc spray test, L1 larvae. It is filed as in vivo. As to conditions: foliar, 72 h, read-out: control (at least one of mortality, anti-feedant effect, and growth inhibition). The method, then: Spodoptera littoralis (Egyptian Cotton Leaf Worm)
Cotton leaf discs were placed on agar in 24-well microtiter plates and sprayed with aqueous test solutions prepared from 10,000 ppm DMSO stock solutions. After drying, the leaf discs were infested with five L1 larvae. The samples were assessed for mortality, anti-feedant effect, and growth inhibition in comparison to untreated samples 3 days after infestation. Control of Spodoptera littoralis by a test sample is when at least one of mortality, anti-feedant effect, and growth inhibition is higher than the untreated sample.

A further data set deals with Plutella xylostella. The data set is described as follows: Plutella xylostella (diamond back moth) artificial diet test, L2 larvae. It is filed as in vivo. The following applies: 120 h, read-out: effect in at least one of the two categories (mortality or growth inhibition); for percent effect (mortality or growth inhibition) at 200 ppm: application rate of 200 ppm, 5 days after infestation, in comparison to untreated samples. The method, then:
Plutella xylostella (Diamond Back Moth)
24-well microtiter plates with artificial diet were treated with aqueous test solutions prepared from 10,000 ppm DMSO stock solutions by pipetting. After drying, the plates were infested with L2 larvae (10 to 15 per well). The samples were assessed for mortality and growth inhibition in comparison to untreated samples 5 days after infestation.

Another data set concerns Diabrotica balteata. The data set is described as follows: Diabrotica balteata (corn root worm) maize sprout spray test, L2 larvae. It is filed as in vivo. As to conditions: 96 h, read-out: effect in at least one of the two categories (mortality or growth inhibition); for percent effect (mortality or growth inhibition) at 200 ppm: application rate of 200 ppm, 4 days after infestation, in comparison to untreated samples. The method, then: Diabrotica balteata (Corn Root Worm)
Maize sprouts, placed on an agar layer in 24-well microtiter plates were treated with aqueous test solutions prepared from 10,000 ppm DMSO stock solutions by spraying. After drying, the plates were infested with L2 larvae (6 to 10 per well). The samples were assessed for mortality and growth inhibition in comparison to untreated samples 4 days after infestation.

[1] abbreviates: application rate of 200 ppm, 3 days after infestation, in comparison to untreated samples.

As for `C/C(=N\Nc1ccc(/C=N/NC(=O)Nc2c(C)cccc2C)cc1)c1ccccc1OC(F)(F)F`, the melting point (usually the temperature of the solid-liquid transition) was in the range of 215 to 224 °C.
For the compound `C/C(=N\Oc1ccc(/C=N/OC(=O)Nc2c(C)cccc2C)cc1)c1ccc(OC(F)(F)F)cc1` [Compound 2, [[4-[1-[4-(trifluoromethoxy)phenyl]ethylidene-amino]oxyphenyl]methyleneamino] N-(2,6-dimethylphenyl) carbamate], in the data set with Spodoptera littoralis, the mortality (in general, the percentage killed) at 200 ppm is at least 80%. The percent control (mortality or growth inhibition) at 200 ppm in the data set on Plutella xylostella and in the data set with Diabrotica balteata was at least 80% each time.
Regarding `CC/C(=N\Nc1ccc(/C=N/NC(=S)Nc2ccccc2C(C)C)cc1)c1ccc(C(F)(F)F)cc1` [Compound 26, 1-(2-isopropylphenyl)-3-[(E)-[4-[(2E)-2-[1-[4-(trifluoromethyl)phenyl]propylidene] hydrazino]phenyl]methyleneamino] thiourea], the mortality at 200 ppm in the data set on Spodoptera littoralis (setting [1]) was at least 80%. Further, the percent effect (mortality or growth inhibition) at 200 ppm with Plutella xylostella and in the data set with Diabrotica balteata was at least 80% each time.
Regarding `Cc1cccc(C)c1NC(=O)N/N=C/c1ccc(O/N=C2\CCc3cc(OC(F)(F)F)ccc32)cc1` [Compound 1, 1-(2,6-dimethylphenyl)-3-[[4-[[5-(trifluoromethoxy)indan-1-ylidene]amino]oxyphenyl]methylene-amino]urea], the mortality at 200 ppm in the data set on Spodoptera littoralis (setting [1]) is at least 80%. The percent effect (mortality or growth inhibition) at 200 ppm in the data set on Plutella xylostella and in the data set with Diabrotica balteata was at least 80% in each case.
In the case of `C/C(=N\Oc1ccc(/C=N/NC(=S)Nc2c(C)cccc2C)cc1)c1ccc(OC(F)(F)F)cc1` [Compound 10, 1-(2,6-dimethylphenyl)-3-[[4-[1-[4-(trifluoromethoxy)phenyl]ethylidene-amino]oxyphenyl]methylene-amino]thiourea], the mortality at 200 ppm with Spodoptera littoralis (setting [1]) is at least 80%. For the same compound, the percent effect (mortality or growth inhibition) at 200 ppm with Plutella xylostella and in the data set with Diabrotica balteata was at least 80% throughout.
Consider `CC(C)c1ccccc1NC(=S)N/N=C/c1ccc(O/N=C2\CCc3cc(OC(F)(F)F)ccc32)cc1` [Compound 5, 1-(2-isopropylphenyl)-3-[[4-[[5-(trifluoromethoxy)indan-1-ylidene]amino]oxyphenyl]methylene-amino]thiourea], for which, in the data set on Spodoptera littoralis (setting [1]), the mortality at 200 ppm was at least 80%. Further, the percent effect (mortality or growth inhibition) at 200 ppm with Plutella xylostella and in the data set on Diabrotica balteata was at least 80% each time.
As for `C/C(=N\Nc1ccc(/C=N/NC(=S)Nc2c(C)cccc2C)cc1)c1ccc(C(F)(F)F)cc1` [Compound 22, 1-(2,6-dimethylphenyl)-3-[(E)-[4-[(2E)-2-[1-[4-(trifluoromethyl)phenyl]ethylidene] hydrazino]phenyl]methyleneamino] thiourea], in the data set with Spodoptera littoralis (setting [1]), the mortality at 200 ppm was at least 80%. In addition, the percent effect (mortality or growth inhibition) at 200 ppm with Plutella xylostella and in the data set with Diabrotica balteata was at least 80% in each case.
Consider `C/C(=N\Nc1ccc(/C=N/NC(=S)Nc2ccccc2C(C)C)cc1)c1ccc(C(F)(F)F)cc1` [Compound 20, 1-(2-isopropylphenyl)-3-[(E)-[4-[(2E)-2-[1-[4-(trifluoromethyl)phenyl]ethylidene] hydrazino]phenyl]methyleneamino] thiourea], for which, in the data set on Spodoptera littoralis (setting [1]), the mortality at 200 ppm is at least 80%. For the same compound, the percent effect (mortality or growth inhibition) at 200 ppm with Plutella xylostella and in the data set on Diabrotica balteata was at least 80% in each case.
